According to patent publication US11040981B2, “Pyrrolotriazine compounds and methods of inhibiting TAM kinases” (Syros Pharmaceuticals, Inc., priority 2017, dated 2021):

Legend:
TYRO3 = molecular target: T1, TYRO3 (Homo sapiens, UniProt Q06418); assay: TR-FRET kinase activity assay, TYRO3; assay type: biochemical; conditions: ATP at Km, 60 minutes
T1 sequence (Q06418 41-890): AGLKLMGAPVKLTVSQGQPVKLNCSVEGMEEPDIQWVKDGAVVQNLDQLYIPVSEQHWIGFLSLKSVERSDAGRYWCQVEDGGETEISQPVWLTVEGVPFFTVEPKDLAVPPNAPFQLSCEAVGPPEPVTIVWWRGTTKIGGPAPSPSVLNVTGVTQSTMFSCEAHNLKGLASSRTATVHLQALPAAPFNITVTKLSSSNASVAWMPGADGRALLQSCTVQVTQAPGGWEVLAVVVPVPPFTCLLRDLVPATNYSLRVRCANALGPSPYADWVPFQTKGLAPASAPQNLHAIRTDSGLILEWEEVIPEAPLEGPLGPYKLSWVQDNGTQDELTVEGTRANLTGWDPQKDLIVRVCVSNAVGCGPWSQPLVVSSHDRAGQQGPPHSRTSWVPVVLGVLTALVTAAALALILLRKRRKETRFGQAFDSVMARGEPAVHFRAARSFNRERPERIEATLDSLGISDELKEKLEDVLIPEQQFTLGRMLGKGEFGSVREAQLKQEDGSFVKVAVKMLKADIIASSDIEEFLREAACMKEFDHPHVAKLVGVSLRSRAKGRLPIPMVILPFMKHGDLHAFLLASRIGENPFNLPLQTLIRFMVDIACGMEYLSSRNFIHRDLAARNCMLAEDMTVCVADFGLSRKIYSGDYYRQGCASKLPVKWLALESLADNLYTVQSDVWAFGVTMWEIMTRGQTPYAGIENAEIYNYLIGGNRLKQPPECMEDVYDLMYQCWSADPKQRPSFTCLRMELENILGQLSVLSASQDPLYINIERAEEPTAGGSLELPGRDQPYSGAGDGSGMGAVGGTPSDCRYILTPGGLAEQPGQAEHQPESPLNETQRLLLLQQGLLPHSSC
Outline: (§1)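 Compounds were tested against each kinase with ATP set at its own Km and a labelled tyrosine peptide substrate. Following one hour at room temperature in buffer containing 10 mM MgCl2 and 1 mM DTT, phosphorylated product was detected by Europium antibody TR-FRET after EDTA quench, and IC50 values were calculated.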

MERTK = molecular target: T2, MERTK (Homo sapiens, UniProt Q12866); assay: TR-FRET kinase activity assay, MERTK; assay type: biochemical; conditions: for IC50: TR-FRET activity assay, ATP at Km, 60 minutes, read-out: Mer IC50
T2 sequence (Q12866 21-999): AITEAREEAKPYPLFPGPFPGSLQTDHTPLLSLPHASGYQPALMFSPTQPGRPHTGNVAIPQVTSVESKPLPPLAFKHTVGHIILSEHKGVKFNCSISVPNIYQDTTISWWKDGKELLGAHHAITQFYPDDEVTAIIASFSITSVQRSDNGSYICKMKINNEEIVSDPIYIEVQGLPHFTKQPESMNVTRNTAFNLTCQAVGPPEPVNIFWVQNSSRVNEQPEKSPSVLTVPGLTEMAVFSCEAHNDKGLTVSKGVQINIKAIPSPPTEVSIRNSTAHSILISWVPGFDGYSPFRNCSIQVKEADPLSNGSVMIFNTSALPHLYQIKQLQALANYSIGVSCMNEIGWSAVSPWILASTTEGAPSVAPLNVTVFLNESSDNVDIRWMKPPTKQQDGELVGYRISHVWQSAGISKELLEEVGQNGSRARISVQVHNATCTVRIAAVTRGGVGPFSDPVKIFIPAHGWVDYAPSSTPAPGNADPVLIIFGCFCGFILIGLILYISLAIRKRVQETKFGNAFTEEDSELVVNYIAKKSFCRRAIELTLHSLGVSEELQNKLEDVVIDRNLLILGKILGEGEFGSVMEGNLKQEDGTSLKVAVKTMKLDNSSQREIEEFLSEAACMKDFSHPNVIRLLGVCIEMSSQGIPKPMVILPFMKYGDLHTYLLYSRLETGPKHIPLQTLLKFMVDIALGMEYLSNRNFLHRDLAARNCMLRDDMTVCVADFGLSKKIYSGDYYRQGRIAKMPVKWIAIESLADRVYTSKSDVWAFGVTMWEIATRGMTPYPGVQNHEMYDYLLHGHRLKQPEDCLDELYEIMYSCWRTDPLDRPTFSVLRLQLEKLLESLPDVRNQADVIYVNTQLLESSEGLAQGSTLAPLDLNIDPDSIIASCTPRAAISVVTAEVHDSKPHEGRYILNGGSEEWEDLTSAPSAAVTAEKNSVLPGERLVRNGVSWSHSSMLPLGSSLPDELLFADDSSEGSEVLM
Outline: as §1

[1] = ratio of Mer to FLT3: FLT3 IC50/Mer IC50
[2] = ratio calculated as FLT3 IC50/Mer IC50

SMILES	IC50 (TYRO3)	IC50 (MERTK)	FLT3/Mer ratio (FLT3 IC50/Mer IC50) (MERTK; [1])	FLT3/Mer ratio (FLT3 IC50/Mer IC50) (MERTK; [2])
COC[C@H](C)Nc1ncc2c(C3=CCOCC3)cc([C@H]3CC[C@H](O)CC3)n2n1 [Compound 141]	≤ 100 nM	≤ 100 nM	+++ (“+++” represents a ratio of >100)	–
COC[C@H](C)Nc1ncc2c(-c3cnn(C4COC4)c3)cc([C@@H]3CC[C@@H](O)C(C)(C)C3)n2n1 [Compound 570]	≤ 100 nM	≤ 100 nM	–	++ (“++” represents a ratio of between 10 and 100)
COCC(C)Nc1ncc2c(-c3ccc4[nH]cnc4c3)cc(C3CCC(O)CC3)n2n1 (stereo not drawn) [Compound 553]	≤ 100 nM	≤ 100 nM	–	+++ (“+++” represents a ratio of >100)
COCC(C)Nc1ncc2c(-c3ccc4ocnc4c3)cc(C3CCC(O)CC3)n2n1 (stereo not drawn) [Compound 550]	≤ 100 nM	≤ 100 nM	–	+++ (“+++” represents a ratio of >100)
CCOCC(C)Nc1ncc2c(-c3ccc(CN4CCN(C)CC4)cc3)cc(C3CCC(O)CC3)n2n1 (stereo not drawn) [Compound 138]	≤ 100 nM	≤ 100 nM	++ (“++” represents a ratio of between 10 and 100)	–
COCC(C)Nc1ncc2c(-c3ccnc(N4CCOC(C(C)(C)O)C4)c3)cc(C3CCC(O)CC3)n2n1 (stereo not drawn) [Compound 559]	≤ 100 nM	≤ 100 nM	–	+++ (“+++” represents a ratio of >100)
COC[C@H](C)Nc1ncc2c(-c3cnn(C(C)(C)C(=O)N4CCCC5(COC5)C4)c3)cc([C@H]3CC[C@H](O)CC3)n2n1 [Compound 516]	≤ 100 nM	≤ 100 nM	–	+++ (“+++” represents a ratio of >100)
COC[C@H](C)Nc1ncc2c(-c3ccc(CN4CCOCC4)cc3)cc([C@H]3CC[C@H](O)CC3)n2n1 [Compound 140]	≤ 100 nM	≤ 100 nM	+++ (“+++” represents a ratio of >100)	–
CC[C@H](C)Nc1ncc2c(C3CCN(c4nccc(C)n4)CC3)cc([C@H]3CC[C@H](O)CC3)n2n1 [Compound 136, (trans)-4-(2-((S)-sec-butylamino)-5-(1-(4-methylpyrimidin-2-yl)piperidin-4-yl)pyrrolo[2,1-f][1,2,4]triazin-7-yl)cyclohexanol]	100 to 1000 nM	≤ 100 nM	+++ (“+++” represents a ratio of >100)	–
COCC(C)Nc1ncc2c(-c3cccc(-c4nnc(C)o4)c3)cc(C3CCC(O)CC3)n2n1 (stereo not drawn) [Compound 551]	≤ 100 nM	≤ 100 nM	–	+++ (“+++” represents a ratio of >100)
CCS(=O)(=O)N1CC(CC#N)(n2cc(-c3cc([C@H]4CC[C@H](O)CC4)n4nc(N[C@@H](C)COC)ncc34)cn2)C1 [Compound 567]	≤ 100 nM	≤ 100 nM	–	+++ (“+++” represents a ratio of >100)
C[C@@H](COC(F)F)Nc1ncc2c(-c3cnn(C(C)(C)C(=O)N4CCN(C)CC4)c3)cc([C@H]3CC[C@H](O)CC3)n2n1 [Compound 593]	≤ 100 nM	≤ 100 nM	–	+++ (“+++” represents a ratio of >100)
COCC(C)Nc1ncc2c(-c3cccc(N4CCOCC4)c3)cc(C3CCC(O)CC3)n2n1 (stereo not drawn) [Compound 562]	≤ 100 nM	≤ 100 nM	–	+++ (“+++” represents a ratio of >100)
COC[C@H](C)Nc1ncc2c(-c3ccnc([S@@](C)(=N)=O)c3)cc([C@H]3CC[C@H](O)CC3)n2n1 [Compound 574]	≤ 100 nM	≤ 100 nM	–	+++ (“+++” represents a ratio of >100)
C[C@@H](CC(F)(F)F)Nc1ncc2c(-c3ccnc([S@](C)(=N)=O)c3)cc([C@H]3CC[C@H](O)CC3)n2n1 [Compound 580]	≤ 100 nM	≤ 100 nM	–	+++ (“+++” represents a ratio of >100)
COC[C@H](C)Nc1ncc2c(-c3cnn(C4COC4)c3)cc([C@@H]3CC[C@H](O)[C@@H](C)C3)n2n1 [Compound 588]	≤ 100 nM	≤ 100 nM	–	++ (“++” represents a ratio of between 10 and 100)
COC[C@H](C)Nc1ncc2c(-c3cnn(C4COC4)c3)cc(C3CCC(=O)NC3)n2n1 (stereo partly drawn) [Compound 526]	≤ 100 nM	≤ 100 nM	–	++ (“++” represents a ratio of between 10 and 100)
CC[C@]1(O)CC[C@H](c2cc(-c3ccnc(N4CCOCC4)c3)c3cnc(N[C@@H](C)COC)nn32)CC1 [Compound 568]	≤ 100 nM	≤ 100 nM	–	+++ (“+++” represents a ratio of >100)
COC[C@H](C)Nc1ncc2c(-c3cnn(C(C)(C)C(=O)N4CCOCC4)c3)cc([C@H]3CC[C@](C)(O)CC3)n2n1 [Compound 560]	≤ 100 nM	≤ 100 nM	–	+++ (“+++” represents a ratio of >100)
C[C@@H](Nc1ncc2c(-c3cnn(C4COC4)c3)cc([C@H]3CC[C@H](O)CC3)n2n1)C(F)(F)F [Compound 527]	≤ 100 nM	≤ 100 nM	–	+++ (“+++” represents a ratio of >100)
COC[C@H](C)Nc1ncc2c(-c3cncc([S@](C)(=N)=O)c3)cc([C@H]3CC[C@@H](O)CC3)n2n1 [Compound 572]	≤ 100 nM	≤ 100 nM	–	+++ (“+++” represents a ratio of >100)
COC[C@H](C)Nc1ncc2c([C@H]3CC[C@H](C(C)=O)CC3)cc([C@H]3CC[C@H](O)CC3)n2n1 [Compound 576]	≤ 100 nM	≤ 100 nM	–	+++ (“+++” represents a ratio of >100)
COC[C@H](C)Nc1ncc2c(-c3ccnc([S@](C)(=N)=O)c3)cc([C@H]3CC[C@H](O)CC3)n2n1 [Compound 575]	≤ 100 nM	≤ 100 nM	–	+++ (“+++” represents a ratio of >100)
COC[C@H](C)Nc1ncc2c(-c3cnn(C4COC4)c3)cc(C3CCSCC3)n2n1 [Compound 522]	≤ 100 nM	≤ 100 nM	–	+++ (“+++” represents a ratio of >100)
